pIC50: −log10 of the molar value.

Here are results for 7 molecules from patent US7608599B2, “Antiviral phosphoramidates” (Roche Palo Alto LLC, priority 2005, dated 2009).

One assay relates to HIV.
Assay: not given
The conditions noted are these: background, Ohrui et al.; cited from earlier work.
As to `C#CC1(CO)OC(n2ccc(N)nc2=O)C(O)C1O` (stereo not shown) [Compound 6a, 4-Ethynyl-cytarabine], the anti-HIV activity result is on record as “good anti-HIV activity”.
Turning to `C#C[C@]1(CO)O[C@@H](n2cc(C)c(=O)[nH]c2=O)[C@@H](O)[C@@H]1O` [Compound 6b], the anti-HIV activity result is “inactive”.

In another assay the test system is HCV replicon RNA replication (Renilla luciferase HCV replicon cells 2209-23). Put plainly: Renilla luciferase assay (HCV replicon). Type of assay: cell-based. The conditions noted are these: 72 h; Huh7-derived replicon cell line 2209-23, three days incubation, luciferase readout.
Broadly, the pIC50 is the negative decadic logarithm of the IC50, by convention in mol/L. In turn, `C[C@H](NP(=O)(OC[C@@]1(N=[N+]=[N-])O[C@@H](n2ccc(=O)[nH]c2=O)[C@H](O)[C@@H]1O)Oc1ccccc1)C(=O)OCc1ccccc1` (stereo partly drawn) [Compound I-13, (S)-2-{[(2R,3S,4R,5R)-2-Azido-5-(2,4-dioxo-3,4-dihydro-2H-pyrimidin-1-yl)-3,4-dihydroxy-tetrahydro-furan-2-ylmethoxy]-phenoxy-phosphorylamino}-propionic acid benzyl ester] had a negative logarithm of the IC50 (pIC50) of 6.12.
With `CC(C)OC(=O)[C@H](C)NP(=O)(OC[C@@]1(N=[N+]=[N-])O[C@@H](n2ccc(=O)[nH]c2=O)[C@H](O)[C@@H]1O)Oc1ccccc1` (stereo partly drawn) [Compound I-14, (S)-2-{[(2R,3S,4R,5R)-2-Azido-5-(2,4-dioxo-3,4-dihydro-2H-pyrimidin-1-yl)-3,4-dihydroxy-tetrahydro-furan-2-ylmethoxy]-phenoxy-phosphorylamino}-propionic acid isopropyl ester], the pIC50 is 6.06.
For `CCC(C)OC(=O)[C@H](C)NP(=O)(OC[C@@]1(N=[N+]=[N-])O[C@@H](n2ccc(N)nc2=O)[C@H](O)[C@@H]1O)Oc1ccccc1` (stereo partly drawn) [Compound I-28, (S)-2-{[(2R,3S,4R,5R)-5-(4-Amino-2-oxo-2H-pyrimidin-1-yl)-2-azido-3,4-dihydroxy-tetrahydro-furan-2-ylmethoxy]-phenoxy-phosphorylamino}-propionic acid sec-butyl ester], the negative-log IC50 (pIC50) is 6.21.
With `CCOC(=O)[C@H](C)NP(=O)(OC[C@@]1(N=[N+]=[N-])O[C@@H](n2ccc(N)nc2=O)[C@H](O)[C@@H]1O)Oc1ccccc1` (stereo partly drawn) [Compound I-34, (S)-2-{[(2R,3S,4R,5R)-5-(4-Amino-2-oxo-2H-pyrimidin-1-yl)-2-azido-3,4-dihydroxy-tetrahydro-furan-2-ylmethoxy]-phenoxy-phosphorylamino}-propionic acid ethyl ester], the negative-log IC50 (pIC50) was 6.42.
`CC(C)OC(=O)[C@H](C)NP(=O)(OC[C@@]1(N=[N+]=[N-])O[C@@H](n2ccc(N)nc2=O)[C@H](O)[C@@H]1O)Oc1ccccc1` (stereo partly drawn) [Compound I-35, (S)-2-{[(2R,3S,4R,5R)-5-(4-Amino-2-oxo-2H-pyrimidin-1-yl)-2-azido-3,4-dihydroxy-tetrahydro-furan-2-ylmethoxy]-phenoxy-phosphorylamino}-propionic acid isopropyl ester] had a pIC50 of 6.00.
